This note sets out measurements from ChEMBL document CHEMBL1201862, “PubChem BioAssay data set” (2004).

A short description of test [1]: inhibitors of intracellular T. cruzi replication, confirmation, NIH3T3 host cells, beta-gal luminescence (AID 2044).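 Further: intracellular parasites grown in NIH/3T3 mouse fibroblasts as host cells; luminescent beta-galactosidase reporter signal from transgenic T. cruzi replicating inside host cells; inhibitors lower the luminescence signal.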 The class given is functional, cell-based.
Test [2] in a line: cytotoxicity toward NIH3T3 fibroblasts, dose response, counter-screen, cell-based, ATP luminescence, mouse fibroblasts (AID 2010).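 Further: cells exposed to compound for about 90 hours before reading.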 The class given is functional. On the technique in general: Counterscreens check selectivity or assay interference.
The target of test [3] is Cytochrome P450 2D6 (Homo sapiens, UniProt P10635).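 Further: CYP2D6 member of a cytochrome P450 panel assay.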
The test system of test [4] is Streptococcus sp. 'group A'. The test is described as follows: growth inhibition of control SK(-) GAS strain, dose response, counter-screen for streptokinase expression inhibitor project, luminescence, kanamycin, BacTiterGlo, confirmation (AID 1900). The class given is functional, organism-based.
Test [5] addresses T1, Streptokinase A (Streptococcus pyogenes serotype M1, UniProt P10520).
T1 sequence (P10520 whole entry): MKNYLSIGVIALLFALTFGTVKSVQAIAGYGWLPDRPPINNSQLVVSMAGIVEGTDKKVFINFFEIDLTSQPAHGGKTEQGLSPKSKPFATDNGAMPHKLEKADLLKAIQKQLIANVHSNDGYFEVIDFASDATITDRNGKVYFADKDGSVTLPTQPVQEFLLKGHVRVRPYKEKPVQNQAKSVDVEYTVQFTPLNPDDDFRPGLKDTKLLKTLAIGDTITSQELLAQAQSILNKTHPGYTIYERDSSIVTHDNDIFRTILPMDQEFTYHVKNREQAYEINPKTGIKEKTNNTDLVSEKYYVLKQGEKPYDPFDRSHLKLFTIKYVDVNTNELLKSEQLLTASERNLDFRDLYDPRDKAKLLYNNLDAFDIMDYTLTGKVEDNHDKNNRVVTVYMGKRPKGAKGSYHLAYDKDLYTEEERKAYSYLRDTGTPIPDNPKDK
The test is described as follows: S. pyogenes streptokinase expression inhibitors, potency, dose response, plasminogen activation absorbance, OD405 (AID 1914).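 Further: secreted streptokinase activity via plasminogen activation per viability signal from cell pellet.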 The class given is functional, Streptococcus pyogenes M1 GAS.

The test system of test [6] is Streptococcus. The test is described as follows: Group A Streptococcus viability loss, dose response, counter-screen for streptokinase expression inhibitor project, luminescence, BacTiterGlo (AID 1915).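 Further: potency for reduction of bacterial viability or growth.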 The class given is functional, organism-based.
In test [7] the target is T2, Corticotropin-releasing factor receptor 2/Corticotropin-releasing factor-binding protein (Homo sapiens, UniProt P24387+Q13324).
T2 sequence (Q13324 whole entry): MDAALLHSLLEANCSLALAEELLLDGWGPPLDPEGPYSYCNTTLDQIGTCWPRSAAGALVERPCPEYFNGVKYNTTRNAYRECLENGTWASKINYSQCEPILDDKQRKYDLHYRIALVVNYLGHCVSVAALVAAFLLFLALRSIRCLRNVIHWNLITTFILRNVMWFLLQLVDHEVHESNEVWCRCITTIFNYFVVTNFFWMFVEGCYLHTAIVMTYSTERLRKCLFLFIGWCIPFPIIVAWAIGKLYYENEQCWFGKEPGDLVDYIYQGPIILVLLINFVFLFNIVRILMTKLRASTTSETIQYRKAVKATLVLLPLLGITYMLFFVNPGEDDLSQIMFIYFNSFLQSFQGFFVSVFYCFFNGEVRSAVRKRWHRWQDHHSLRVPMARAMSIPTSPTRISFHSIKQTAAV
T2 sequence (P24387 whole entry): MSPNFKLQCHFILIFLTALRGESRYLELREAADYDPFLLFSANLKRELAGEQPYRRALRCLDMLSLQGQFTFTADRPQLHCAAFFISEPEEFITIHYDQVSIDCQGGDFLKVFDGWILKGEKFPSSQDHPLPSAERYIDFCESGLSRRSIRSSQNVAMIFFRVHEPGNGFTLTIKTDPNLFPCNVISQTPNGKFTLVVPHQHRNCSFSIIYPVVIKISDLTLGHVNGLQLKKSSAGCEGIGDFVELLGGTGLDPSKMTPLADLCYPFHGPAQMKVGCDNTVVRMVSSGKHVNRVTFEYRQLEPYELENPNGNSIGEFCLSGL
The test is described as follows: activators of CRF receptor 2 with binding protein – uHTS hits, confirmation (AID 602473). The class given is functional. Particulars: read-out: EC50_Mean.

Activity calls are given as the source filed them. For most assays here, no stated cut-off is given here; in the data, actives have a measured EC50 and inactives only a lower limit.

Cytochrome P450 2D6, sequence (P10635 whole entry): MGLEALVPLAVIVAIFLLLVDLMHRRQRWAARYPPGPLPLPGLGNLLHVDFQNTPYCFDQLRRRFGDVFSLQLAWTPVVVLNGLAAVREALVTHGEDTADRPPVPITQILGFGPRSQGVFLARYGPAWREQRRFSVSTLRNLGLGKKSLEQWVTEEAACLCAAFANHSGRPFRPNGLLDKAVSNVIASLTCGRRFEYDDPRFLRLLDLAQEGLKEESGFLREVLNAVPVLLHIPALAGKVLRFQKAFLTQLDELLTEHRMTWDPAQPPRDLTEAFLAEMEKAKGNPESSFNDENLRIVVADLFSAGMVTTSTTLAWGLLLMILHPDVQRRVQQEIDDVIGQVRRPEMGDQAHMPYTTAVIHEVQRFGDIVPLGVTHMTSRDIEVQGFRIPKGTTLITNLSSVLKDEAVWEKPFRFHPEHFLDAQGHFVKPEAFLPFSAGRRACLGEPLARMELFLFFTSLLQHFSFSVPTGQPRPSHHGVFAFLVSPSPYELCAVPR

As to `Cc1ccc(-c2nn(C(C)(C)C)c3ncnc(NS(=O)(=O)c4ccc([N+](=O)[O-])cc4)c23)cc1`, the EC50 is 2.33 µM (active) in test [1] and > 60 µM (not active) in test [2]. The matching figures for `Cc1ccc(NC(=O)c2c(C(F)(F)F)nn(C)c2SCc2ccc(Cl)cc2)cc1C`: 2.84 µM (active) and > 60 µM (not active). Broadly, the AC50 is the midpoint of the concentration-response curve, whichever way the signal moves. With `CN1CCc2cc3c(cc2[C@@H]1[C@@H]1C(=O)Oc2c1ccc1c2OCO1)OCO3`, the AC50 in test [3] was 39.8 µM (inconclusive). In the case of `COc1ccc(C2CC3=Nc4ncnn4C(c4ccccc4C)C3=C(O)C2)c(OC)c1` (stereo not given), the figures for the EC50 in test [1] and in test [2] were 1.56 µM (active) and > 60 µM (not active), respectively. Turning to `Cc1cccc(Nc2nc(N)nc(CN3CCN(c4ccc(F)cc4)CC3)n2)c1`, the values for the EC50 in test [4], in test [5] and in test [6] were 12.1 µM (active), > 150 µM (not active) and 95.3 µM (active), respectively. As for `CNc1c([N+](=O)[O-])nn(-c2ccc3c(c2)OCCO3)[n+]1[O-]`, the EC50 in test [1] is 0.68 µM (active); in test [2] it was 20.1 µM (active). Take `CSc1ccccc1C(=O)C1CCCN(Cc2cnn(-c3ccccc3)c2)C1` (stereo not given): the EC50 in test [1] was 0.245 µM (active); in test [2] it was > 60 µM (not active). Turning to `O=C(NCC1COc2ccccc2O1)c1ccc(NC(=O)C(c2ccccc2)c2ccccc2)cc1` (stereo not given), the values for the EC50 in test [1] and in test [2] were 1.88 µM (active) and > 60 µM (inconclusive), respectively. As to `CC(C)(C)CC(=O)N1CCC(c2nc(O)c3nnn(Cc4c(F)cccc4Cl)c3n2)CC1`, the EC50 is > 150 µM (not active) in test [5] and 16.7 µM (active) in test [6]. On to `O=C(Nc1nc(-c2ccccc2)cs1)c1cccc([N+](=O)[O-])c1`, for which the EC50 in test [1] is 2.4 µM (active); in test [2], > 60 µM (not active).

For the compound `COc1cccc(-c2nc(NCc3ccccc3)c3ccccc3n2)c1`, the AC50 in test [3] was 20 µM (inconclusive). As for `CC1CCCN(CCOCCSc2ccccc2)C1` (stereo not given), the results for the EC50 in test [1] and in test [2] were 0.297 µM (active) and > 60 µM (not active), respectively. The corresponding values for `c1ccc(C(c2nnnn2C2CCCC2)N2CCN(c3nc4ccccc4s3)CC2)cc1` (stereo not given) are 1.95 µM (active) and > 60 µM (not active). The matching figures for `Cc1ccccc1S(=O)(=O)Cc1ccc(C(=O)NCCN2CCN(Cc3ccccc3)CC2)o1`: 1.4 µM (active) and > 60 µM (not active).

Take `O=C(c1cnccn1)N1CCC2(CCCN(c3ncccn3)C2)CC1`: the AC50 in test [3] is 15.8 µM (inconclusive). With `Cc1ccc(N2C(=O)NC(=O)/C(=C\c3ccoc3)C2=O)cc1`, in test [7], the EC50 is > 53 µM (inactive). On the same count and under the same terms, for `Cc1noc(/C=C/c2ccc(-c3ccccc3Cl)o2)c1[N+](=O)[O-]` the value was 5.11 µM (active); for `COc1ccc(O)c(C(=O)c2cc(C#N)c(=O)n(-c3c(C)n(C)n(-c4ccccc4)c3=O)c2)c1`, 6.39 µM (active). For the compound `CCOC(=O)c1ccc(NC(S)=NN2CCN(C)CC2)cc1`, the EC50 was 1.08 µM (active) in test [1] and > 60 µM (inconclusive) in test [2]. `Fc1ccc(-c2cc(C(F)(F)F)nc(N3CCCCC3)n2)cc1`: the EC50 was 10.3 µM (active) in test [4], 6.14 µM (active) in test [5] and 13.1 µM (active) in test [6]. With `C/C=C/c1ccc(OCC(O)CN(C)Cc2ccc(SC)cc2)c(OC)c1` (stereo not given), the EC50 is 0.388 µM (active) in test [1] and > 60 µM (not active) in test [2]. The matching figures for `CCN(CC)CCn1c(SCC(=O)NCCC2=CCCCC2)nc2c(sc3ccccc32)c1=O`: 2 µM (active) and 15.7 µM (active).

As for `N#Cc1ccc(CSc2nnc(-c3ccncc3)n2CCc2ccccc2)cc1`, the EC50 is 0.772 µM (active) in test [1] and > 60 µM (not active) in test [2]. `Cc1cc(S(=O)(=O)NCc2ccccc2)ccc1OCC(=O)NCC1CCCO1` (stereo not given): in test [7], the EC50 was > 53 µM (inactive). For `COc1ccc(CN2CCN(Cc3cccc4nonc34)CC2CCO)c(C)c1C` (stereo not given), the EC50 in test [1] was 0.403 µM (active); in test [2], > 60 µM (not active). The corresponding values for `COc1cccc(N/C(SCc2cccc([N+](=O)[O-])c2)=C(/C#N)C(N)=O)c1` are 4.17 µM (active) and > 60 µM (not active). With `COc1ccc(NC(=O)N2CCCC3(CCN(S(=O)(=O)c4ccccc4)CC3)C2)cc1`, the AC50 in test [3] was 15.8 µM (inconclusive). As for `O=C(Nc1cccc2ncccc12)c1ccc2c(c1)OCCO2`, the EC50 in test [7] was > 53 µM (inactive). On to `CCOC(=O)Cn1c(CN(Cc2ccccc2)Cc2ccccc2)nc2c1c(=O)[nH]c(=O)n2C`, for which the AC50 in test [3] was 31.6 µM (inconclusive). `CCOc1ccc(NS(=O)(=O)c2ccc(NC(=O)[C@@H]3CCCC[C@@H]3C(=O)O)cc2)cc1`: the EC50 in test [7] was > 53 µM (inactive). Consider `Cc1c(C(=O)Nc2ccc(S(=O)(=O)N(C)C3CCN(C)CC3)cc2)oc2c(Cl)cccc12`, for which the EC50 in test [1] is 0.85 µM (active); in test [2], > 30 µM (not active). As to `CCCC[C@@H]1C[C@H]1C(NC(=O)c1ccco1)c1ccc(Cl)cc1` (stereo not given in full), in test [3], the AC50 was 39.8 µM (inconclusive). Regarding `Cc1cccc(N2CCN(C(=O)c3ccc(Cl)c(S(=O)(=O)N4CCc5ccccc5C4)c3)CC2)c1C`, the EC50 in test [1] was 1.13 µM (active); in test [2] it was > 60 µM (inconclusive). The matching figures for `COc1ccc(/C=C(/C(=O)c2ccc(Cl)cc2Cl)n2cncn2)cc1`: 0.423 µM (active) and 31.4 µM (active). On to `Cn1c2ccccc2c(=O)c2cc(C#Cc3ccc(N)cc3)ccc21`, for which the EC50 was 0.713 µM (active) in test [4] and 3.34 µM (active) in test [6]. Turning to `Cc1cc(NC(=O)CCCn2cnc([N+](=O)[O-])n2)no1`, the figures for the EC50 in test [1] and in test [2] were 0.797 µM (active) and > 60 µM (inconclusive), respectively. Take `O=C(CSc1nnc(NC(=O)c2ccccc2)s1)NCC1CCCO1` (stereo not given): the EC50 in test [4], in test [5] and in test [6] was > 150 µM (not active) throughout. As for `CC(C)Oc1cccc(C(=O)C2CCCN(Cc3cnc(N4CCOCC4)s3)C2)c1` (stereo not given), the EC50 in test [1] is 0.146 µM (active); in test [2], > 30 µM (not active).

Regarding `CN(C)CCCN(C(=O)c1cc2ccccc2oc1=O)c1nc2c(F)cccc2s1`, the EC50 in test [1] was 0.118 µM (active); in test [2] it was > 60 µM (not active).

With `Cc1cc(S(=O)(=O)NCCC2=CCCCC2)ccc1Br`, the EC50 in test [4] was 9.73 µM (active); in test [5], 10.4 µM (active); in test [6], > 150 µM (not active). For `CN(CC[C@@H](Oc1ccc(-c2ccccc2)cc1)c1ccc(F)cc1)CC(=O)O`, the AC50 in test [3] was 31.6 µM (inconclusive). With `CC1=C(C)CC2(C(=O)NC(=S)NC2=O)C(C)C1` (stereo not given), the EC50 in test [7] is > 53 µM (inactive). Turning to `CCOc1ccc(N=C(N)Nc2nc(C)cc(C)n2)cc1`, the EC50 in test [7] was 6.95 µM (active).

For the compound `COc1ccc(/C=c2\s/c(=C/C(=O)c3ccc(C)cc3)[nH]c2=O)cc1OC`, the EC50 in test [7] is 13.4 µM (active); in test [4] it was 13.2 µM (active); in test [5] it was > 150 µM (not active); in test [6], > 150 µM (not active). Turning to `O=C(CNc1cccc2ccccc12)N/N=C/c1ccc[nH]1`, the EC50 in test [4], in test [5] and in test [6] was > 150 µM (not active) throughout.

Turning to `Cc1ccc(N/N=C/C=C/c2ccco2)cc1`, the EC50 in test [1] was 3.31 µM (active); in test [2], > 30 µM (not active). Regarding `Cc1noc(C)c1-c1ccc2ncnc(NCc3cccnc3)c2c1`, the AC50 in test [3] is 12.6 µM (inconclusive).
